Laboratory results as given in patent EP1958941A1, “Oxazolidinones and their use as hypocholesterolemic agents” (Lipideon Biotechnology AG, priority 2007, dated 2008).

Tested on: rabbit brush border membrane vesicles (BBMV)
Assay: inhibition of cholesterol uptake in rabbit brush border membrane vesicles (scavenger receptor-mediated uptake of radiolabelled cholesterol ester from donor particles)
Assay type: biochemical
Details: inhibition of uptake of radiolabelled cholesterol ester from loaded donor particles into the BBMV bilayer; test concentration not given
Description: Chem. Int. Ed. 2004, 43, 4653-4656; Kvaerno, L. et. al. Org. Lett. 2005, 7, 1145-1148, van Bennekum, A. et. al. Biochemistry 2005, 44, 4517-4525).
The compounds of the invention (commercially obtained or prepared according to Wu, G. Z. et al., J. Org. Chem. 1999, 64, 3714-3718) together with the glucuronide (the metabolite of ezetimibe, prepared according to Vaccaro and Davis, Bioorg. Med. Chem. Lett. 1998, 8, 313-318) as appropriate reference compounds were evaluated by well-established methods to determine their inhibition of cholesterol uptake in rabbit brush border membrane vesicles (BBMV) (Table 1). Briefly, the scavenger receptor-mediated uptake of radiolabelled cholesterol ester from the loaded donor particles into the BBMV bilayer was measured in the presence of various compounds of the invention and appropriate reference compounds (Kvaerno, L. et al, Angew. Chem. Int. Ed. 2004, 43, 4653-4656; Kvaerno, L. et al, Org. Lett. 2005, 7, 1145-1148).

Row | Compound | CAI (%) Inhibition
1 | CCCNC(=O)c1ccc(N2C(=O)O[C@H](CO)[C@H]2c2ccc(O)cc2)cc1 [Compound 15, 4-((4R,5S)-5-(hydroxymethyl)-4-(4-hydroxyphenyl)-2-oxooxazolidin-3-yl)-N-propylbenzamide] | 15 ± 4%
2 | O=C1O[C@H](Cn2nncc2-c2ccccc2)[C@@H](c2ccc(O)cc2)N1c1ccc(F)cc1 [Compound 29, (4R, 5R)-3-(4-fluorophenyl)-4-(4-hydroxyphenyl)-5-((5-phenyl-1H-1,2,3-triazol-1-yl)methyl)oxazolidin-2-one] | 15 ± 1%
3 | O=C1O[C@H](Cn2nncc2-c2ccc(F)cc2)[C@@H](c2ccc(O)cc2)N1c1ccc(F)cc1 [Compound 30, (4R,5R)-3-(4-fluorophenyl)-5-((5-(4-fluorophenyl)-1H-1,2,3-triazol-1-yl)methyl)-4-(4-hydroxyphenyl)oxazolidin-2-one] | 16 ± 1%
4 | CN(C)CCNC(=O)c1ccc(N2C(=O)O[C@H](CO)[C@H]2c2ccc(O)cc2)cc1 [Compound 33, N-(2-(dimethylamino)ethyl)-4-((4R,5S)-5-(hydroxymethyl)-4-(4-hydroxyphenyl)-2-oxooxazolidin-3-yl)-benzamide] | 16 ± 2%
5 | C[N+](C)(C)CCNC(=O)c1ccc(N2C(=O)O[C@H](CO)[C@H]2c2ccc(OCc3ccccc3)cc2)cc1 [Compound 34, ((4R,5S)-4-(4-(benzyloxy)phenyl)-5-(hydroxy-methyl)-2-oxooxazolidin-3-yl)-N-(2-(trimethylamonium-iodide)ethyl)benzamide] | 29 ± 3%
6 | C[N+](C)(C)CCNC(=O)c1ccc(N2C(=O)O[C@H](CO)[C@H]2c2ccc(O)cc2)cc1 [Compound 35, ((4R,5S)-4-(4-hydroxyphenyl)-5-(hydroxymethyl)-2-oxooxazolidin-3-yl)-N-(2-(trimethylamoniumbromide)ethyl)-benzamide] | 20 ± 1%
7 | O=C(NCCN1CCOCC1)c1ccc(N2C(=O)O[C@H](CO)[C@H]2c2ccc(OCc3ccccc3)cc2)cc1 [Compound 36, 4-((4R,5S)-4-(4-(benzyloxy)phenyl)-5-(hydroxymethyl)-2-oxooxazolidin-3-yl)-N-(2-morpholinoethyl)-benzamide] | 33 ± 2%
8 | O=C(NCCN1CCOCC1)c1ccc(N2C(=O)O[C@H](CO)[C@H]2c2ccc(O)cc2)cc1 [Compound 37, 4-((4R,5S)-5-(hydroxymethyl)-4-(4-hydroxy-phenyl)-2-oxooxazolidin-3-yl)-N-(2-morpholinoethyl)-benzamide] | 21 ± 3%
9 | C[N+]1(CCNC(=O)c2ccc(N3C(=O)O[C@H](CO)[C@H]3c3ccc(OCc4ccccc4)cc3)cc2)CCOCC1.[I-] [Compound 38, 4-(2-(4-((4R,5S)-4-(4-(benzyloxy)phenyl)-5-(hydroxymethyl)-2-oxooxazolidin-3-yl)benzamido)ethyl)-4-methylmorpholin-4-ium iodide] | 24 ± 2%
10 | O=C1[C@H](CC[C@H](O)c2ccc(F)cc2)[C@@H](c2ccc(O)cc2)N1c1ccc(F)cc1 [Ezetimibe, reference compound] | 15 ± 4%
